{"source": "patent US20210123061A1", "about": "“METHODS AND COMPOSITIONS FOR TREATING INFLAMMATORY DISEASE OR DISORDER” (THE BRIGHAM AND WOMEN'S HOSPITAL, INC., priority 2018, published 2021)", "key": {"[1]": {"system": "activated macrophages (CD45+ CD11b+ F4/80+ CD86+ cells)", "assay": "Mouse model of thioglycollate-elicited peritonitis, flow cytometry of peritoneal cells", "format": "in vivo, mice", "details": "30 mg/kg intraperitoneally, twice; 24 hours after thioglycollate", "method": "FIGS. 5A-5D show RSK activity plays a key role for pro-inflammatory activation of macrophages in peritonitis model. (FIG. 5A) Model overview—mice were injected intraperitoneally with vehicle or 30 mg/kg BI-D1870. Twenty-four hours after the injection, 4% thioglycollate as well as vehicle or 30 mg/kg BI-D1870 were injected intraperitoneally in the mice. Forty-eight hours after the first injection, peritoneal cells were harvested. (FIG. 5B) Representative results of flow cytometry. Peritoneal cells were incubated with APC-Cy7-anti-CD45, FITC-anti-F4/80, APC-anti-CD11b, and PE-Cy7-anti-CD86 followed by flow-cytometry analysis. (FIG. 5C) Ratio of CD86-positive cells in peritoneal macrophages. Data are means±SE. N=10 mice. *P<0.05 indicates significance compared to control (vehicle) by unpaired Student's test. (FIG. 5D) Cell numbers of peritoneal CD86-positive macrophages. Data are means±SE. N=10 mice. *P<0.05 indicates significance by unpaired Student's test.\nMouse peritonitis model. C57BL/6J wild type mice (12 weeks old, male) were purchased from Jackson Laboratory. We injected intraperitoneally with vehicle (30% PEG400, 0.5% Tween80, 5% Propylene glycol) or 30 mg/kg BI-D1870 (Selleck Chemicals). […]\nFlow cytometry. […] After washing cells with EasySep Buffer, stained cells were analyzed by BD FACSAria II (BD Bioscience) and FlowJo software (FlowJo LLC)."}, "[2]": {"system": "RXXpS/T, RPS6-pSer235/236, PRAS40-pThr246", "assay": "Immunoblot of RXXpS/T motif, RPS6 and PRAS40 phosphorylation in macrophages", "format": "cell-based, human", "method": "FIGS. 6A-6C show phospho-proteomics identified RSK substrates in human PBMC-derived macrophages. (FIG. 6A) Scheme of phospho-proteomics. Human PBMC-derived macrophages were treated with DMSO or BI-D1870 for two hours followed by IFN-γ stimulation for subsequent proteolysis and phospho-peptide enrichment using the anti-RXXpS/T antibody strategy. (FIG. 6B) Cell lysates were subjected to immunoblot analysis with anti-RPS6-pSer235/236, anti-RPS6, anti-PRAS40-pThr246, anti-PRAS40, or anti-Tubulin. N=2 donors. […] The average shortest distance of the same number of randomly selected genes to disease genes was calculated for N=250 realizations in order to compare the average shortest distance value to random expectation. Empirical p-values were calculated based on 100 degree-preserved randomizations of the first neighbor networks.\nFIGS. 15A-15C show RXXpS/T pattern in human IFN-γ-stimulated macrophages. (FIG. 15A) Human PBBMC-derived macrophages were treated with DMSO or 10 μM BI-D1870 for 2 hours followed by stimulation with IFN-γ for 1 hour. Cell lysates were subjected to immunoblot analysis with anti-RXXpS/T antibody. (FIG. 15B) Four ellipse Venn diagram showing numbers of detected phospho-peptides in each sample. (FIG. 15C) A flow chart of screening for RSK-substrates in human macrophages. We identified 24 candidates including RPS6 and AKT1S1/PRAS40 as RSK-substrates. […]"}}, "data": [{"molecule": "CC(C)CCN1c2nc(Nc3cc(F)c(O)c(F)c3)ncc2N(C)C(=O)C1C", "note": "(stereo not shown) [BI-D1870]", "values": [{"measurement": "accumulation of activated macrophages in peritoneal cavity", "setting": "[1]", "value": "suppressed"}, {"measurement": "ratio of activated macrophages to total macrophages", "setting": "[1]", "value": "suppressed"}, {"measurement": "anti-RXXpS/T immunoblot signal intensities", "setting": "[2]; 10 μM for 2 hours, then IFN-γ 1 hour", "value": "decrease in signal intensities"}, {"measurement": "RPS6-pSer235/236 and PRAS40-pThr246 immunoblot", "setting": "[2]; IFN-γ versus RSK-inhibition, two donors", "value": "confirming the changes"}]}]}
